Data reported in ChEMBL document CHEMBL3997840, “Kinase-independent phosphoramidate S1P1 receptor agonist benzyl ether derivatives” (Bioorg Med Chem Lett, 2017).
Blank lines part the entries; values can stand above or below the compound they belong to.

Tests used:
Serum [1] = test: Drug metabolism in human serum assessed as monophosphate formation by measuring parent compound half life at 3 mg by 31P NMR method; format: ADME, cell-free
[2] = molecular target: Sphingosine 1-phosphate receptor 3 (Homo sapiens, UniProt Q99500); test: Agonist activity at human S1P3 receptor expressed in CHOK1 cell membranes by [35S]-GTPgammaS binding assay
Sphingosine 1-phosphate receptor 3, sequence (Q99500 whole entry): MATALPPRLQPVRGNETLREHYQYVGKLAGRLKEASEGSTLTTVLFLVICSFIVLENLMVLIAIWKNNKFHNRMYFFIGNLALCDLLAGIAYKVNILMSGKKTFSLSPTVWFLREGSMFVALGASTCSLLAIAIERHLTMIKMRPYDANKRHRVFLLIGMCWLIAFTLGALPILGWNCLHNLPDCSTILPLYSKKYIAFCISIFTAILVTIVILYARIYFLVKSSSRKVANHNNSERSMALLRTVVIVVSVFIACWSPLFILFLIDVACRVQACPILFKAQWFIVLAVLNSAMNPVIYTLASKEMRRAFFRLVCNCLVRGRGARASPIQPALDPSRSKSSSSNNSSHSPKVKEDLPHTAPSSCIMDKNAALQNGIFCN

Homo sapiens = species on record: Homo sapiens; test: Selectivity ratio of EC50 for human S1P3 receptor to EC50 for human S1P1 receptor
[3] = Chemical stability in aqueous buffer at pH 8 at 3 mg measured every 12 mins over 13 hrs by 31P NMR method; format: physicochemical; settings: pH 8, 13 h
[4] = Chemical stability in aqueous buffer at pH 1.5 at 3 mg measured every 12 mins over 13 hrs by 31P NMR method; format: physicochemical; settings: pH 1.5, 13 h
[5] = Drug metabolism assessed as carboxypeptidase Y (unknown origin)-mediated monophosphate formation at 3 mg measured every day over 2 weeks by mass spectroscopic method; format: ADME; settings: human, 336 h
Serum [6] = test: Drug metabolism in human serum assessed as monophosphate formation at 3 mg after 12 hrs by mass spectroscopic method; format: ADME, cell-free
[7] = Drug metabolism in mouse J1 cell derived neurons assessed as monophosphate formation at 3 mg after 4 days by mass spectroscopic method; format: ADME, cell-based; settings: j1 cell-derived neuron, 96 h

t1/2 (Serum [1]): 14 h
SMILES: COC(=O)[C@H](C)NP(=O)(OC[C@](C)(N)COCc1cc(C)c(C(=O)CCCc2ccc(C)cc2)cc1C)Oc1ccccc1 (some centres undefined)

EC50 [2]: > 20 µM
Ratio EC50 (Homo sapiens): > 3080
SMILES: Cc1ccc(CCCC(=O)c2cc(C)c(COC[C@@](C)(N)COP(=O)(O)O)cc2C)cc1

t1/2 (Serum [1]): 14 h
SMILES: Cc1ccc(CCCC(=O)c2ccc(COC[C@@](C)(N)COP(=O)(N[C@@H](C)C(=O)OCc3ccccc3)Oc3ccccc3)cc2)cc1 (some centres undefined)

Ratio EC50 (Homo sapiens): 29
SMILES: Cc1ccc(CCCC(=O)c2ccc(COC[C@@](C)(N)COP(=O)(O)O)cc2)cc1

t1/2 (Serum [1]): 14 h
SMILES: Cc1ccc(CCCC(=O)c2ccc(COC[C@@](C)(N)COP(=O)(N[C@@H](C)C(=O)OC(C)C)Oc3ccccc3)cc2)cc1 (some centres undefined)

t1/2 (Serum [1]): 14 h
SMILES: Cc1ccc(CCCC(=O)c2cc(C)c(COC[C@@](C)(N)COP(=O)(N[C@@H](C)C(=O)OCc3ccccc3)Oc3ccccc3)cc2C)cc1 (some centres undefined)

t1/2 (Serum [1]): 14 h
SMILES: Cc1ccc(CCCC(=O)c2cc(C)c(COC[C@@](C)(N)COP(=O)(N[C@@H](C)C(=O)OC(C)C)Oc3ccccc3)cc2C)cc1 (some centres undefined)

Stability [3]: Stable
Stability [4]: Stable
t1/2 (Serum [1]): 14 h
Drug metabolism [5]: Metabolite_Detected
Drug metabolism (Serum [6]): Metabolite_Detected
Drug metabolism [7]: Metabolite_Detected
SMILES: COC(=O)[C@H](C)NP(=O)(OC[C@](C)(N)COCc1ccc(C(=O)CCCc2ccc(C)cc2)cc1)Oc1ccccc1 (some centres undefined)
